Reference: article PMC3877285, “A New Strategy for Enhancing the Oral Bioavailability of Drugs with Poor Water-Solubility and Low Liposolubility Based on Phospholipid Complex and Supersaturated SEDDS” (PLoS ONE, 2013)
Several values for one entry are separate records, joined by “and”; a condition that tells them apart may be missing. Equal entries are not always repeated.

Key:
[1] = In vivo pharmacokinetics after oral dosing; conditions: male, Sprague-Dawley, rat, plasma, 40 mg/kg equivalent to scutellarin, SD rats, n = 5, mean ± SD
Protocol: 20 male SD rats (300∼350 g) were fasted but allowed free access to water for 12 h, then divided randomly into 4 groups for the pharmacokinetics experiments of scutellarin powder, SPC, conventional SEDDS and Super-SEDDS. In order to avoid failure detection of plasma drug, the various formulations were orally administrated to rats at a dose of 40 mg/kg, according to the highest dosage of commercial oral solution, with a ceiling volume of 10 mL/kg when dispersed by purified water. The blood samples of 0.5 mL were collected in a 1.5 mL heparin treated EP tube from the orbital venous prior to the dose and at 0.5, 1, 2, 3, 4, 5, 6, 8, 10, 12, 24 and 36 h after the dose. The plasma was immediately isolated from whole blood by centrifugation (4000 rpm, 10 min) at room temperature and then stored in a −80°C freezer until analysis.
An HPLC analysis system (HP 1100 series, Agilent Technologies, Wilmington, Germany) of a quaternary pump, an autosampler and a UV detector with an ODS-C18 column (250 mm×4.6 mm i.d., Sepax Technologies Inc., Delaware, USA), was used for the determination of scutellarin. The mobile phase was a mixture of methanol, acetonitrile and 50 mM KH2PO4, at a ratio of 22∶15:63 (v/v/v), with pH of 2.5 adjusted by phosphoric acid. The detection was carried out at a wavelength of 335 nm, with a flow rate of 1.0 mL/min at room temperature.
200 µL of thawed plasma was removed to a 10 mL EP tube. 50 µL of internal standard working solution (20 µg/mL of rutin in methanol) was added and subsequently acidified by 100 µL of phosphoric acid (10 wt %) for 10 min. Then, 3 mL of ethyl acetate was infused for extracting scutellarin from plasma. After 30 min vortex, samples were centrifuged at 4000 rpm for 10 min, and the isolated supernatant was concentrated under nitrogen gas flow in bath of 40°C. Before HPLC detection, it needed to be re-dissolved by 100 µL of HPLC mobile phase and centrifuged at 10,000 rpm for 5 min. The whole analytical methodology including plasma treatment and HPLC detection was validated by accuracy and precision (see Table 2) as previously described.
The plasma data was analyzed in batches by DAS 2.0 (Mathematical Pharmacology Professional Committee of China, Shanghai, China). Peak plasma concentration (Cmax) and the time to reach Cmax (Tmax) were based on measured values. Area under the curve (AUC0-t) was calculated via a trapezoidal area method. […] All values were expressed as the mean ± standard deviation. The significant differences between each group were determined by one way analysis of variance (ANOVA) using the statistical package for social sciences software (SPSS® version 17.0, SPSS Inc., Shanghai, China), with the significance defined as p<0.05 and high significance as p<0.001.

[2] = set-up: method as in PMID 16269273; conditions: cited from earlier work
[3] = In vitro lipolysis study; assay type: in vitro ADME; conditions: lipolysis medium pH 6.5, pancreatic lipase, 37°C, 20 mg scutellarin equivalent, n = 3
Protocol: In vitro lipolysis studies were performed as previously described, [22] with minor modifications. Briefly, lipolysis medium was prepared in advance, containing 5 mM bile salt, 2 mM trizma maleate buffer, 1.25 mM phosphatidyl choline, and 150 mM sodium chloride, and was adjusted to pH 6.5 with 0.1 M NaOH. Then according to the single-dosage of commercial oral solution detailed as 70 mg scutellarin administrated into 900 mL GI medium, scutellarin powder, SPC, conventional SEDDS and super-SEDDS with a dose of 20 mg (equivalent to scutellarin) were dispersed in 250 mL warmed lipolysis medium (37°C), with a stirring rate of 100 rpm. After that, lipolysis was initiated by adding 50 mL freshly prepared pancreatic lipase solution (2000 TBU/mL, pH 6.5, 37°C), then controlled by constantly pumping 0.15 M CaCl2 with a rate of 0.25 mL/min. Over the lipolysis period, pH value was maintained at 6.5 by a pH-stat device (902 Titrando, Metrohm, Switzerland). At pre-determined time intervals (5, 10, 20, 30, 45, 60, 90, 120 min), 5 mL digested medium was taken and filtered by 0.45 µm polypropylene membrane. The filtered samples were immediately diluted 10 times with acetonitrile to stop lipolysis and induce protein precipitation. At last, the diluted samples were centrifuged at 10,000 rpm for 10 min (Centrifuge 5810R, Eppendorf, Germany), and subsequently analyzed by HPLC (as mentioned later).

[4] = Ex vivo intestinal absorption, everted intestinal sac; assay type: in vitro ADME, Sprague-Dawley (SD) rats; conditions: everted rat jejunum sac, 50 µg/mL scutellarin
Protocol: An everted intestinal sac experiment, modified according to the method previously described, was adopted to evaluate the ex vivo intestinal absorption of scutellarin. Kreb-Ringer’s (K–R) solution, containing 342.0 mM NaCl, 6.7 mM KCl, 5.9 mM CaCl2·2H2O, 5.3 mM MgCl2, 59.5 mM NaHCO3, 2.1 mM NaH2PO4 and 5.5 mM glucose, was prepared in advance. Half was cooled in 4°C refrigerator and the rest was warmed in a 37°C water bath. Scutellarin powder, SPC, conventional SEDDS and Super-SEDDS were dispersed in warmed K–R solution with a concentration of 50 µg/mL scutellarin, approximate to the lowest released concentration of drug during the lipolysis test. Male Sprague-Dawley (SD) rats were fasted overnight and then anesthetized with an intraperitoneal injection of chloral hydrated (10%, w/v) at a dose of 0.4 mL per 100 g. After dissection of the abdominal wall, the jejunum (21 cm from the pylorus) was carefully isolated without any mesentery, clipped into segments of 10 cm, and quickly rinsed in cooled K–R solution. […] After the tests, the length and width of the intestinal segments were measured for the calculation of uptake amount per unit area.

Compound: O=C(O)[C@H]1O[C@@H](Oc2cc3oc(-c4ccc(O)cc4)cc(=O)c3c(O)c2O)[C@H](O)[C@@H](O)[C@@H]1O [Scutellarin powder, Scutellarin]
- AUC(0-t) [1]: 2670 ± 404 ng·h/mL
- Cmax [1]: 178 ± 35 ng/mL
- Tmax [1]: 5.2 ± 0.8 h
- half-life ([1]; read-out: T1/2z (converted)): 34.8 ± 22.8 h
- pKa [2]: 3.29
- cumulative dissolution percentage [3]: 70% and 70.1±3.2%
- intestinal absorption (cumulative) [4]: 0.04 µg/cm^2
